Test results taken from PubChem BioAssay AID264 (DTP/NCI, 2004).
Several values for one entry are separate records, joined by “and”; a condition that tells them apart may be missing. Equal entries are not always repeated. Results filed as inconclusive are left out.

Test system: nude mice, LX-1 lung xenograft intrarenal, tumor weight T/C
Experiment: NCI In Vivo Anticancer Drug Screen. Data for tumor model Human Lung LX-1 Xenograft (intrarenal inoculation) in NU/NU Swiss (nude) mice
Settings: endpoint: mean tumor weight change, higher = larger tumour
How it was run: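 Antitumor effect is expressed as a ratio: the mean tumor measurement of the drug-treated group relative to that of the vehicle-dosed control group.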

[1] = dose: 12.5 mg/kg/injection, schedule: Q01DX010 (sc), vehicle: saline
[2] = dose: 25.0 mg/kg/injection, schedule: Q01DX010 (sc), vehicle: saline
[3] = dose: 50.0 mg/kg/injection, schedule: Q01DX010 (sc), vehicle: saline
[4] = dose: 200.0 mg/kg/injection, schedule: Q01DX010 (sc), vehicle: saline with Tween-80
[5] = dose: 100.0 mg/kg/injection, schedule: Q01DX010 (sc), vehicle: saline
[6] = dose: 1.0 mg/kg/injection, schedule: Q01DX010 (sc), vehicle: saline
[7] = dose: 200.0 mg/kg/injection, schedule: Q01DX010 (sc), vehicle: saline
[8] = dose: 400.0 mg/kg/injection, schedule: Q01DX010 (sc), vehicle: saline
[9] = dose: 800.0 mg/kg/injection, schedule: Q01DX010 (sc), vehicle: saline
[10] = dose: 300.0 mg/kg/injection, schedule: Q04DX003 (sc), vehicle: Klucel (hydroxypropylcellulose) (HPC)
[11] = dose: 600.0 mg/kg/injection, schedule: Q04DX003 (sc), vehicle: Klucel (hydroxypropylcellulose) (HPC)
[12] = dose: 1200.0 mg/kg/injection, schedule: Q04DX003 (sc), vehicle: Klucel (hydroxypropylcellulose) (HPC)
[13] = dose: 2400.0 mg/kg/injection, schedule: Q04DX003 (sc), vehicle: Klucel (hydroxypropylcellulose) (HPC)
[14] = dose: 150.0 mg/kg/injection, schedule: Q04DX003 (sc), vehicle: Klucel (hydroxypropylcellulose) (HPC)

Q: With `CCCC(=O)O.CCCC(=O)O.CCCC(=O)O.CCCC(=O)O.[Rh].[Rh]` as the molecule, how does the T/C (dose: 2.0 mg/kg/injection, schedule: Q04DX003 (sc), vehicle: suspension in saline) read?
A: 48 % of control

Q: What about the T/C (dose: 4.0 mg/kg/injection, schedule: Q04DX003 (sc), vehicle: suspension in saline) of the same molecule?
A: 51 % of control

Q: What about the T/C (dose: 8.0 mg/kg/injection, schedule: Q04DX003 (sc), vehicle: suspension in saline) of the same molecule?
A: 42 % of control

Q: And the T/C (dose: 16.0 mg/kg/injection, schedule: Q04DX003 (sc), vehicle: suspension in saline)?
A: 55 % of control

Q: With `C[CH2][Ge]1([CH2]C)[CH2]CC2(CCN(CCCN(C)C)C2)C[CH2]1` as the molecule, how does the T/C (dose: 150.0 mg/kg/injection, schedule: Q04DX003 (sc), vehicle: saline) read?
A: 89 % of control

Q: Which T/C [1] does the source give for `CS(=O)(=O)OCCN(CCOS(C)(=O)=O)c1ccc(C=O)cc1` here?
A: 188 % of control

Q: And the T/C [2]?
A: 71 % of control

Q: And the T/C [3]?
A: 33 % of control

Q: How did the T/C [3] turn out when `NC(C/[N+]([O-])=N/O)C(=O)O` (configuration not stated) was run?
A: 47 % of control

Q: Which T/C (dose: 100.0 mg/kg/injection, schedule: Q01DX010 (sc), vehicle: saline with Tween-80) does the source give for `CCNC(=O)OCc1c(COC(=O)NCC)c(-c2ccc(Cl)c(Cl)c2)n2c1CCC2` here?
A: 26 % of control and 31 % of control

Q: And the T/C [4]?
A: 95 % of control

Q: Which results are given for `C=CS(=O)(=O)c1ccccc1`?
A: T/C [2]: 57 % of control; T/C [3]: 65 % of control; T/C [5]: 29 % of control

Q: What does the source list for `C[PH+](C)C.C[PH+](C)C.[Au]`?
A: T/C (dose: 5.0 mg/kg/injection, schedule: Q04DX003 (sc), vehicle: suspension in saline): 111 % of control; T/C (dose: 10.0 mg/kg/injection, schedule: Q04DX003 (sc), vehicle: suspension in saline): 118 % of control; T/C (dose: 20.0 mg/kg/injection, schedule: Q04DX003 (sc), vehicle: suspension in saline): 76 % of control

Q: With `CN(C)C(=O)c1cccc(COc2ccc(N3C(N)=NC(N)=NC3(C)C)cc2Cl)c1` as the molecule, how does the T/C (dose: 6.25 mg/kg/injection, schedule: Q01DX010 (sc), vehicle: saline) read?
A: 85 % of control

Q: And the T/C [1]?
A: 57 % of control

Q: And the T/C [2]?
A: 25 % of control

Q: And the T/C (dose: 25.0 mg/kg/injection, schedule: Q01DX010 (sc), vehicle: suspension in saline)?
A: 91 % of control

Q: Which results are given for `Nc1nc([Se])c2ncn(C3OC(CO)C(O)C3O)c2n1` (configuration not stated)?
A: T/C [6]: 264 % of control; T/C (dose: 2.0 mg/kg/injection, schedule: Q01DX010 (ip), vehicle: saline): 46 % of control; T/C (dose: 4.0 mg/kg/injection, schedule: Q01DX010 (ip), vehicle: saline): 31 % of control; T/C (dose: 6.66 mg/kg/injection, schedule: Q04DX003 (ip), vehicle: saline): 82 % of control; T/C (dose: 6.66 mg/kg/injection, schedule: Q04DX003 (sc), vehicle: saline): 45 % of control; T/C (dose: 8.0 mg/kg/injection, schedule: Q01DX010 (ip), vehicle: saline): 41 % of control; T/C (dose: 13.33 mg/kg/injection, schedule: Q04DX003 (ip), vehicle: saline): 121 % of control; T/C (dose: 13.33 mg/kg/injection, schedule: Q04DX003 (sc), vehicle: saline): 62 % of control; T/C (dose: 16.0 mg/kg/injection, schedule: Q01DX010 (ip), vehicle: saline): 61 % of control; T/C (dose: 16.0 mg/kg/injection, schedule: Q01DX010 (sc), vehicle: saline): 35 % of control; T/C (dose: 26.65 mg/kg/injection, schedule: Q04DX003 (ip), vehicle: saline): 91 % of control; T/C (dose: 26.65 mg/kg/injection, schedule: Q04DX003 (sc), vehicle: saline): 95 % of control; T/C (dose: 53.3 mg/kg/injection, schedule: Q04DX003 (ip), vehicle: saline): 44 % of control

Q: Which T/C (dose: 5.0 mg/kg/injection, schedule: Q01DX010 (sc), vehicle: saline with Tween-80) does the source give for `O=C/C(Cl)=C(/Cl)C(=O)O` here?
A: 124 % of control

Q: And the T/C (dose: 10.0 mg/kg/injection, schedule: Q01DX010 (sc), vehicle: saline with Tween-80)?
A: 210 % of control

Q: What about the T/C (dose: 20.0 mg/kg/injection, schedule: Q01DX010 (sc), vehicle: saline with Tween-80) of the same molecule?
A: 72 % of control and 213 % of control

Q: What about the T/C (dose: 40.0 mg/kg/injection, schedule: Q01DX010 (sc), vehicle: saline with Tween-80) of the same molecule?
A: 48 % of control and 65 % of control

Q: Which results are given for `COc1ccc2nc3cc(Cl)ccc3c(NCCNCCNCCNc3c4ccc(Cl)cc4nc4ccc(OC)cc34)c2c1`?
A: T/C (dose: 12.5 mg/kg/injection, schedule: Q01DX010 (sc), vehicle: saline with Tween-80): 81 % of control; T/C (dose: 50.0 mg/kg/injection, schedule: Q01DX010 (sc), vehicle: saline with Tween-80): 106 % of control; T/C [4]: 70 % of control; T/C (dose: 400.0 mg/kg/injection, schedule: Q01DX010 (sc), vehicle: saline with Tween-80): 46 % of control

Q: `CC(=O)NCCCCCCNC(C)=O` was tested. Which T/C [7] did it give?
A: 106 % of control

Q: And the T/C [8]?
A: 45 % of control

Q: And the T/C [9]?
A: 105 % of control and 114 % of control

Q: What about the T/C (dose: 3200.0 mg/kg/injection, schedule: Q01DX010 (sc), vehicle: saline) of the same molecule?
A: 96 % of control

Q: With `O=c1[nH]cnc2n[nH]nc12` as the molecule, how does the T/C [10] read?
A: 100 % of control

Q: And the T/C [11]?
A: 92 % of control

Q: What about the T/C [12] of the same molecule?
A: 35 % of control

Q: What about the T/C [13] of the same molecule?
A: 27 % of control

Q: For `Cn1cnc([N+](=O)[O-])c1SCC(=O)O`, which T/C [5] is on record?
A: 71 % of control

Q: What about the T/C [7] of the same molecule?
A: 83 % of control

Q: And the T/C [8]?
A: 103 % of control

Q: And the T/C [9]?
A: 66 % of control

Q: With `NC(=S)N/N=C/c1ccc(OC(=O)COc2ccc(Cl)cc2)cn1` as the molecule, how does the T/C (dose: 300.0 mg/kg/injection, schedule: Q04DX003 (sc), vehicle: saline with Tween-80) read?
A: 54 % of control

Q: And the T/C (dose: 600.0 mg/kg/injection, schedule: Q04DX003 (sc), vehicle: saline with Tween-80)?
A: 44 % of control

Q: And the T/C (dose: 1200.0 mg/kg/injection, schedule: Q04DX003 (sc), vehicle: saline with Tween-80)?
A: 23 % of control

Q: With `CSc1ncnc2c1ncn2C1OC(CO)C(O)C1O` (configuration not stated) as the molecule, how does the T/C (dose: 75.0 mg/kg/injection, schedule: Q04DX003 (sc), vehicle: saline + alcohol) read?
A: 166 % of control

Q: And the T/C (dose: 150.0 mg/kg/injection, schedule: Q04DX003 (sc), vehicle: saline + alcohol)?
A: 22 % of control

Q: For `COC1C(CO)OC(n2cnc3c(=S)nc(N)[nH]c32)C1O` (configuration not stated), which T/C (dose: 75.0 mg/kg/injection, schedule: Q04DX003 (sc), vehicle: Klucel (hydroxypropylcellulose) (HPC)) is on record?
A: 118 % of control

Q: And the T/C [14]?
A: 110 % of control

Q: What about the T/C [10] of the same molecule?
A: 86 % of control

Q: What about the T/C [11] of the same molecule?
A: 66 % of control

Q: With `COC1CC(C)C(OC)C2=CC(=O)C=C(NC(=O)/C(C)=C/C=C\C(C)C(OC(N)=O)/C(C)=C\C(C)C1OC)C2=O` (configuration not stated) as the molecule, how does the T/C (dose: 12.5 mg/kg/injection, schedule: Q04DX003 (sc), vehicle: saline + alcohol) read?
A: 35 % of control

Q: And the T/C (dose: 25.0 mg/kg/injection, schedule: Q04DX003 (sc), vehicle: saline + alcohol)?
A: 87 % of control

Q: And the T/C (dose: 50.0 mg/kg/injection, schedule: Q04DX003 (sc), vehicle: saline + alcohol)?
A: 73 % of control

Q: With `Cc1cc(N/N=C/c2ccccn2)nc2ccccc12` as the molecule, how does the T/C [14] read?
A: 89 % of control

Q: What about the T/C [10] of the same molecule?
A: 103 % of control

Q: And the T/C [11]?
A: 115 % of control

Q: And the T/C [12]?
A: 98 % of control

Q: `C[N+](C)(C)c1ncnc2c1ncn2C1CCCO1` (configuration not stated) was tested. Which T/C (dose: 0.25 mg/kg/injection, schedule: Q01DX010 (sc), vehicle: saline) did it give?
A: 65 % of control

Q: And the T/C [6]?
A: 106 % of control

Q: And the T/C (dose: 2.0 mg/kg/injection, schedule: Q01DX010 (sc), vehicle: saline)?
A: 94 % of control

Q: And the T/C [1]?
A: 176 % of control

Q: What about the T/C [2] of the same molecule?
A: 120 % of control

Q: Which T/C (dose: 100.0 mg/kg/injection, schedule: Q04DX003 (sc), vehicle: Klucel (hydroxypropylcellulose) (HPC)) does the source give for `CCCCCCCCCCCCCCC/C([O-])=N/[N+](C)(C)CC(C)O` (configuration not stated) here?
A: 66 % of control

Q: And the T/C (dose: 200.0 mg/kg/injection, schedule: Q04DX003 (sc), vehicle: Klucel (hydroxypropylcellulose) (HPC))?
A: 54 % of control

Q: What about the T/C (dose: 400.0 mg/kg/injection, schedule: Q04DX003 (sc), vehicle: Klucel (hydroxypropylcellulose) (HPC)) of the same molecule?
A: 103 % of control

Q: And the T/C (dose: 800.0 mg/kg/injection, schedule: Q04DX003 (sc), vehicle: Klucel (hydroxypropylcellulose) (HPC))?
A: 77 % of control

Q: And the T/C [12]?
A: 77 % of control

Q: And the T/C [13]?
A: 69 % of control

Q: How did the T/C (dose: 200.0 mg/kg/injection, schedule: Q04DX003 (sc), vehicle: saline) turn out when `CC1(C)COCN1COCCOCN1COCC1(C)C` was run?
A: 169 % of control

Q: And the T/C (dose: 400.0 mg/kg/injection, schedule: Q04DX003 (sc), vehicle: saline)?
A: 191 % of control

Q: Which T/C (dose: 1.25 mg/kg/injection, schedule: Q04DX003 (sc), vehicle: saline) does the source give for `CC1=C(O)C(=O)[C@@H]2O[C@@H]2C1=O` here?
A: 103 % of control

Q: And the T/C (dose: 2.5 mg/kg/injection, schedule: Q04DX003 (sc), vehicle: saline)?
A: 106 % of control

Q: And the T/C (dose: 5.0 mg/kg/injection, schedule: Q04DX003 (sc), vehicle: saline)?
A: 160 % of control

Q: And the T/C (dose: 10.0 mg/kg/injection, schedule: Q04DX003 (sc), vehicle: saline)?
A: 114 % of control
